Laboratory results published in patent US12364733B1, “Method for treating septic shock” (Inotrem, priority 2018, dated 2025).

Test system: septic shock patients
Experiment: Phase IIa clinical trial with nangibotide in septic shock patients: SOFA score evolution
Assay type: in vivo, human
Protocol: This was a randomized, double-blind, two-stage, placebo-controlled study. As described in FIG. 7, the study was composed of 2 stages with a similar treatment regimen, in which 0.3, 1.0 or 3.0 mg/kg/h of nangibotide (corresponding to peptide LR12, having an amino acid sequence as set forth in SEQ ID NO: 9, also known as motrem) was tested versus placebo. All patients with a diagnosis of septic shock were considered for study participation. All potential study patients underwent standard care management procedures. Patients with evidence of septic shock according to the Sepsis-3 definition (Singer et al, JAMA 2016) were considered for inclusion (i.e., patients suffering from sepsis and having (i) persisting hypotension requiring vasopressors to maintain their mean arterial pressure ≥65 mm Hg and (ii) a serum lactate level >2 mmol/L (18 mg/dL) despite adequate volume resuscitation).
After screening for eligibility, patients were randomized to one of the treatment arms. Then, they received either a 5 mg/kg loading dose of nangibotide over 15 minutes followed by a continuous intravenous (i.v.) infusion of nangibotide or a matching placebo on top of standard of care. Treatment with study drug was initiated as early as possible, but no later than 24 hours after the onset of septic shock, defined by the start of vasopressor therapy. Patients were treated until 12 (±2) hours after the resolution of their septic shock (defined as vasopressor withdrawal) with a maximum treatment duration of 5 days (120 hours).
Adverse events (AEs) were coded using the MedDRA dictionary version 18.1. Treatment-emergent adverse events (TEAEs) were summarized and listed. Analysis was performed in 49 septic shock patients. The demographic and baseline characteristics were summarized in a descriptive fashion within each population: categorical variables were summarized by contingency tables (frequencies and percentages). sTREM-1 levels at day 1 were also described (mean, standard deviation, standard error, median, quartiles and range, minimum and maximum values). Mortality rates were reported by frequency and percentage. For continuous endpoints, i.e., the sequential organ failure assessment (SOFA), missing data were imputed using LOCF (Last Observation Carry-Forward). For time-to-event analyses, i.e., duration of invasive mechanical ventilation (IMV), duration of continuous renal replacement therapy (CRRT), survival, censored data techniques were utilized. In addition, a sensitivity analysis of time to event data (except survival) was performed using censoring at maximum limit for the corresponding observation period (i.e., either day 28 or day 90). […] The following comparisons were made: each nangibotide dose arm to placebo, all nangibotide doses combined versus placebo, and dose-response using an ordinal trend test. Exploratory composite endpoint: incidence (number and proportion) of patients alive at day 28 and free of vasopressor, free of IMV and free of CRRT were summarized by treatment and compared between treatments with a Fisher's exact test. For pharmacodynamic markers, log transformed data were represented as percentage change from baseline at day 5 or End of Infusion (EOI) if end of infusion was stopped before day 5. […] “All nangibotide” refers to analyses obtained by pooling data from 0.3, 1 and 3 mg/kg/h nangibotide-treated groups.

[1] = patients with low sTREM-1 at baseline (below median 433 pg/mL), Day 3, 3.0 mg/kg/h
[2] = patients with low sTREM-1 at baseline (below median 433 pg/mL), Day 3, all nangibotide doses pooled
[3] = patients with low sTREM-1 at baseline (below median 433 pg/mL), Day 4, 0.3 mg/kg/h
[4] = patients with low sTREM-1 at baseline (below median 433 pg/mL), Day 4, 1.0 mg/kg/h
[5] = patients with low sTREM-1 at baseline (below median 433 pg/mL), Day 4, 3.0 mg/kg/h
[6] = patients with low sTREM-1 at baseline (below median 433 pg/mL), Day 4, all nangibotide doses pooled
[7] = patients with low sTREM-1 at baseline (below median 433 pg/mL), Day 5, 1.0 mg/kg/h
[8] = whole population, Day 1, 0.3 mg/kg/h
[9] = whole population, Day 1, 1.0 mg/kg/h
[10] = whole population, Day 1, 3.0 mg/kg/h
[11] = whole population, Day 1, all nangibotide doses pooled
[12] = whole population, Day 2, 0.3 mg/kg/h
[13] = whole population, Day 2, 1.0 mg/kg/h
[14] = whole population, Day 2, 3.0 mg/kg/h
[15] = whole population, Day 2, all nangibotide doses pooled
[16] = whole population, Day 3, 0.3 mg/kg/h
[17] = whole population, Day 3, 1.0 mg/kg/h
[18] = whole population, Day 3, 3.0 mg/kg/h
[19] = whole population, Day 3, all nangibotide doses pooled
[20] = whole population, Day 4, 0.3 mg/kg/h
[21] = whole population, Day 4, 1.0 mg/kg/h
[22] = whole population, Day 4, 3.0 mg/kg/h
[23] = whole population, Day 4, all nangibotide doses pooled
[24] = whole population, Day 5, 1.0 mg/kg/h

## nangibotide (LQEEDAGEYGCM; TLT-1 peptide)
[1]
  SOFA score evolution (change versus baseline, LOCF), LSMean (SE): −2.10 (1.35)
  SOFA score, estimated difference (SE) vs. placebo: 0.01 (1.69)
[2]
  SOFA score evolution (change versus baseline, LOCF), LSMean (SE): −2.10 (0.67)
  SOFA score, estimated difference (SE) vs. placebo: 0.02 (1.23)
[3]
  SOFA score evolution (change versus baseline, LOCF), LSMean (SE): −2.70 (0.94)
  SOFA score, estimated difference (SE) vs. placebo: −0.57 (1.32)
[4]
  SOFA score evolution (change versus baseline, LOCF), LSMean (SE): −1.79 (1.03)
  SOFA score, estimated difference (SE) vs. placebo: 0.34 (1.41)
[5]
  SOFA score evolution (change versus baseline, LOCF), LSMean (SE): −2.62 (1.24)
  SOFA score, estimated difference (SE) vs. placebo: −0.49 (1.55)
[6]
  SOFA score evolution (change versus baseline, LOCF), LSMean (SE): −2.37 (0.62)
  SOFA score, estimated difference (SE) vs. placebo: −0.24 (1.13)
Patients with low sTREM-1 at baseline (below median 433 pg/mL), Day 5, 0.3 mg/kg/h
  SOFA score evolution (change versus baseline, LOCF), LSMean (SE): −2.71 (1.10)
Patients with low sTREM-1 at baseline (below median 433 pg/mL), Day 5, 0.3 mg/kg/h, 0.3 mg/kg
  SOFA score, estimated difference (SE) vs. placebo: −0.71 (1.56)
Patients with low sTREM-1 at baseline (below median 433 pg/mL), Day 5, 0.3 mg/kg/h, listed as nangibotide, 0.3 mg/kg
  SOFA score, estimated difference (SE) vs. placebo: −0.71
[7]
  SOFA score evolution (change versus baseline, LOCF), LSMean (SE): −1.93 (1.21)
  SOFA score, estimated difference (SE) vs. placebo: 0.06 (1.65)
Patients with low sTREM-1 at baseline (below median 433 pg/mL), Day 5, 3.0 mg/kg/h
  SOFA score evolution (change versus baseline, LOCF), LSMean (SE): −1.87 (1.46)
Patients with low sTREM-1 at baseline (below median 433 pg/mL), Day 5, 3.0 mg/kg/h, 3 mg/kg
  SOFA score, estimated difference (SE) vs. placebo: 0.12 (−1.82)
Patients with low sTREM-1 at baseline (below median 433 pg/mL), Day 5, 3.0 mg/kg/h, listed as nangibotide, 3 mg/kg
  SOFA score, estimated difference (SE) vs. placebo: 0.12
Patients with low sTREM-1 at baseline (below median 433 pg/mL), Day 5, all nangibotide doses pooled
  SOFA score evolution (change versus baseline, LOCF), LSMean (SE): −2.17 (0.73)
[8]
  SOFA score evolution (change versus baseline, LOCF), LSMean (SE): −0.65 (0.52)
  SOFA score, estimated difference (SE) vs. placebo: 0.26 (0.75)
[9]
  SOFA score evolution (change versus baseline, LOCF), LSMean (SE): −0.39 (0.54)
  SOFA score, estimated difference (SE) vs. placebo: 0.53 (0.77)
[10]
  SOFA score evolution (change versus baseline, LOCF), LSMean (SE): −0.33 (0.54)
  SOFA score, estimated difference (SE) vs. placebo: 0.59 (0.76)
[11]
  SOFA score evolution (change versus baseline, LOCF), LSMean (SE): −0.45 (0.31)
  SOFA score, estimated difference (SE) vs. placebo: 0.46 (0.62)
[12]
  SOFA score evolution (change versus baseline, LOCF), LSMean (SE): −2.27 (0.63)
  SOFA score, estimated difference (SE) vs. placebo: −0.94 (0.91)
[13]
  SOFA score evolution (change versus baseline, LOCF), LSMean (SE): −1.97 (0.65)
  SOFA score, estimated difference (SE) vs. placebo: −0.64 (0.92)
[14]
  SOFA score evolution (change versus baseline, LOCF), LSMean (SE): −0.91 (0.65)
  SOFA score, estimated difference (SE) vs. placebo: 0.42 (0.92)
[15]
  SOFA score evolution (change versus baseline, LOCF), LSMean (SE): −1.72 (0.37)
  SOFA score, estimated difference (SE) vs. placebo: −0.38 (0.75)
[16]
  SOFA score evolution (change versus baseline, LOCF), LSMean (SE): −2.67 (0.68)
  SOFA score, estimated difference (SE) vs. placebo: −1.42 (0.98)
[17]
  SOFA score evolution (change versus baseline, LOCF), LSMean (SE): −1.87 (0.71)
  SOFA score, estimated difference (SE) vs. placebo: −0.62 (1.00)
[18]
  SOFA score evolution (change versus baseline, LOCF), LSMean (SE): −0.91 (0.70)
  SOFA score, estimated difference (SE) vs. placebo: 0.34 (1.00)
[19]
  SOFA score evolution (change versus baseline, LOCF), LSMean (SE): −1.82 (0.40)
  SOFA score, estimated difference (SE) vs. placebo: −0.57 (0.81)
[20]
  SOFA score evolution (change versus baseline, LOCF), LSMean (SE): −2.91 (0.67)
  SOFA score, estimated difference (SE) vs. placebo: −1.50 (0.96)
[21]
  SOFA score evolution (change versus baseline, LOCF), LSMean (SE): −1.95 (0.70)
  SOFA score, estimated difference (SE) vs. placebo: −0.53 (0.98)
[22]
  SOFA score evolution (change versus baseline, LOCF), LSMean (SE): −1.16 (0.69)
  SOFA score, estimated difference (SE) vs. placebo: 0.26 (0.98)
[23]
  SOFA score evolution (change versus baseline, LOCF), LSMean (SE): −2.00 (0.40)
  SOFA score, estimated difference (SE) vs. placebo: −0.59 (0.80)
Whole population, Day 5, 0.3 mg/kg/h
  SOFA score evolution (change versus baseline, LOCF), LSMean (SE): −2.91 (0.71)
Whole population, Day 5, 0.3 mg/kg/h, 0.3 mg/kg
  SOFA score, estimated difference (SE) vs. placebo: −1.66 (1.03)
Whole population, Day 5, 0.3 mg/kg/h, listed as nangibotide, 0.3 mg/kg
  SOFA score, estimated difference (SE) vs. placebo: −1.66
[24]
  SOFA score evolution (change versus baseline, LOCF), LSMean (SE): −2.03 (0.74)
  SOFA score, estimated difference (SE) vs. placebo: −0.78 (1.04)
Whole population, Day 5, 3.0 mg/kg/h
  SOFA score evolution (change versus baseline, LOCF), LSMean (SE): −0.90 (0.74)
Whole population, Day 5, 3.0 mg/kg/h, 3 mg/kg
  SOFA score, estimated difference (SE) vs. placebo: 0.34 (1.04)
Whole population, Day 5, 3.0 mg/kg/h, listed as nangibotide, 3 mg/kg
  SOFA score, estimated difference (SE) vs. placebo: 0.34
Whole population, Day 5, all nangibotide doses pooled
  SOFA score evolution (change versus baseline, LOCF), LSMean (SE): −1.95 (0.42)
Whole population, no statistically significant differences
  SOFA score decrease during the first 5 days vs. placebo: consistent numerical trend in favor of nangibotide
